Experimental data reported in patent publication US20230398130A1, “METHODS AND COMPOSITIONS FOR DIFFERENTIATING STEM CELLS” (Massachusetts Institute of Technology, priority 2020, published 2023).

Legend:
ISC-enriched organoids [1] = test: Primary screen, 384-well 2.5-D organoid differentiation (ENR+CD, 6 days): basal lysozyme secretion (LYZ.NS); type: cell-based, murine; conditions: for Dose.FC.LYZ.NS: FC vs plate median; for Z.LYZ.NS: standard z score of FC; for SSMD.LYZ.NS: strictly standardized mean difference; for Dose.FC.LYZ.NS (log 2 fold change, basal lysozyme secretion): vs plate median
Excerpt: (§1) High-throughput screening.

ISC-enriched organoids [2] = test: Primary screen, 384-well 2.5-D organoid differentiation (ENR+CD, 6 days, Target Selective Inhibitor Library, vs whole-plate median): ATP (CellTiter-Glo 3D, CTG); conditions: for Dose.FC.CTG: FC vs plate median; for SSMD.CTG: strictly standardized mean difference; for Dose.FC.CTG (log 2 fold change, ATP): vs plate median
ISC-enriched organoids [3] = test: Primary screen, 384-well 2.5-D organoid differentiation (ENR+CD, 6 days): carbachol-induced lysozyme secretion (LYZ.S); type: cell-based, murine; conditions: for Dose.FC.LYZ.S: FC vs plate median; for Z.LYZ.S: standard z score; for SSMD.LYZ.S: strictly standardized mean difference; for Dose.FC.LYZ.S (log 2 fold change, carbachol-induced lysozyme secretion): vs plate median
Excerpt: as §1

[4] = Dose 0.08 uM, standard z score of FC
[5] = Dose 0.40 uM, standard z score of FC
[6] = Dose 2.00 uM, standard z score of FC
[7] = Dose 10.00 uM, standard z score of FC
[8] = primary screen, 1st of the 4 dose lines of the treatment (dose not given)
[9] = primary screen, 2nd of the 4 dose lines of the treatment (dose not given)
[10] = primary screen, 3rd of the 4 dose lines of the treatment (dose not given)
[11] = primary screen, 4th of the 4 dose lines of the treatment (dose not given)

COc1cc(OC)c(NC(=O)Nc2cc(C)on2)cc1Cl [PNU-120596]
Dose.FC.LYZ.NS (ISC-enriched organoids [1]; Dose 0.08 uM, primary screen): 0.108 log 2 fold change
Z.LYZ.NS (ISC-enriched organoids [1]; Dose 0.08 uM): 0.944
Dose.FC.LYZ.NS (ISC-enriched organoids [1]; Dose 0.40 uM, primary screen): −0.011 log 2 fold change
Z.LYZ.NS (ISC-enriched organoids [1]; Dose 0.40 uM): −0.098
Dose.FC.LYZ.NS (ISC-enriched organoids [1]; Dose 2.00 uM, primary screen): 0.068 log 2 fold change
Z.LYZ.NS (ISC-enriched organoids [1]; Dose 2.00 uM): 0.594
Dose.FC.LYZ.NS (ISC-enriched organoids [1]; Dose 10.00 uM, primary screen): −0.060 log 2 fold change
Z.LYZ.NS (ISC-enriched organoids [1]; Dose 10.00 uM): −0.525
Dose.FC.CTG (ISC-enriched organoids [2]; Dose 0.08 uM, primary screen): −0.079 log 2 fold change
Z.CTG (ISC-enriched organoids [2]; [4]): −0.188
Dose.FC.CTG (ISC-enriched organoids [2]; Dose 0.40 uM, primary screen): 0.085 log 2 fold change
Z.CTG (ISC-enriched organoids [2]; [5]): 0.204
Dose.FC.CTG (ISC-enriched organoids [2]; Dose 2.00 uM, primary screen): 0.114 log 2 fold change
Z.CTG (ISC-enriched organoids [2]; [6]): 0.271
Dose.FC.CTG (ISC-enriched organoids [2]; Dose 10.00 uM, primary screen): 0.138 log 2 fold change
Z.CTG (ISC-enriched organoids [2]; [7]): 0.330
Dose.FC.LYZ.S (ISC-enriched organoids [3]; Dose 0.08 uM, primary screen): 0.058 log 2 fold change
Dose.FC.LYZ.S (ISC-enriched organoids [3]; Dose 0.40 uM, primary screen): 0.081 log 2 fold change
Dose.FC.LYZ.S (ISC-enriched organoids [3]; Dose 2.00 uM, primary screen): 0.065 log 2 fold change
Dose.FC.LYZ.S (ISC-enriched organoids [3]; Dose 10.00 uM, primary screen): −0.049 log 2 fold change

OC[C@H]1O[C@@H](c2ccc(Cl)c(Cc3ccc(O[C@H]4CCOC4)cc3)c2)[C@H](O)[C@@H](O)[C@@H]1O [Empagliflozin (BI 10773)]
Dose.FC.LYZ.NS (ISC-enriched organoids [1]; Dose 0.08 uM, ENR+CD, 6 days): −0.006 log 2 fold change
Z.LYZ.NS (ISC-enriched organoids [1]; Dose 0.08 uM): −0.052
Dose.FC.LYZ.NS (ISC-enriched organoids [1]; Dose 0.40 uM, ENR+CD, 6 days): −0.034 log 2 fold change
Z.LYZ.NS (ISC-enriched organoids [1]; Dose 0.40 uM): −0.294
Dose.FC.LYZ.NS (ISC-enriched organoids [1]; Dose 2.00 uM, ENR+CD, 6 days): −0.009 log 2 fold change
Z.LYZ.NS (ISC-enriched organoids [1]; Dose 2.00 uM): −0.081
Dose.FC.LYZ.NS (ISC-enriched organoids [1]; Dose 10.00 uM, ENR+CD, 6 days): 0.017 log 2 fold change
Z.LYZ.NS (ISC-enriched organoids [1]; Dose 10.00 uM): 0.144
Dose.FC.CTG (ISC-enriched organoids [2]; Dose 0.08 uM, ENR+CD, 6 days): −0.296 log 2 fold change
Z.CTG (ISC-enriched organoids [2]; [4]): −0.707
Dose.FC.CTG (ISC-enriched organoids [2]; Dose 0.40 uM, ENR+CD, 6 days): −0.075 log 2 fold change
Z.CTG (ISC-enriched organoids [2]; [5]): −0.178
Dose.FC.CTG (ISC-enriched organoids [2]; Dose 2.00 uM, ENR+CD, 6 days): −0.192 log 2 fold change
Z.CTG (ISC-enriched organoids [2]; [6]): −0.458
Dose.FC.CTG (ISC-enriched organoids [2]; Dose 10.00 uM, ENR+CD, 6 days): −0.134 log 2 fold change
Z.CTG (ISC-enriched organoids [2]; [7]): −0.320
Dose.FC.LYZ.S (ISC-enriched organoids [3]; Dose 0.08 uM, ENR+CD, 6 days): −0.051 log 2 fold change
Dose.FC.LYZ.S (ISC-enriched organoids [3]; Dose 0.40 uM, ENR+CD, 6 days): −0.055 log 2 fold change
Dose.FC.LYZ.S (ISC-enriched organoids [3]; Dose 2.00 uM, ENR+CD, 6 days): −0.103 log 2 fold change
Dose.FC.LYZ.S (ISC-enriched organoids [3]; Dose 10.00 uM, ENR+CD, 6 days): −0.022 log 2 fold change

Cc1cc(Nc2ncc(Cl)c(Nc3ccccc3S(=O)(=O)C(C)C)n2)c(OC(C)C)cc1C1CCNCC1 [LDK378]
SSMD.LYZ.NS (ISC-enriched organoids [1]; [8]): 0.246
SSMD.LYZ.NS (ISC-enriched organoids [1]; [9]): −0.527
SSMD.LYZ.NS (ISC-enriched organoids [1]; [10]): −1.818
SSMD.LYZ.NS (ISC-enriched organoids [1]; [11]): −2.550
Z.CTG (ISC-enriched organoids [2]; Dose 0.08 uM, primary screen, standard z score): 0.322
Z.CTG (ISC-enriched organoids [2]; Dose 0.40 uM, primary screen, standard z score): 0.010
Z.CTG (ISC-enriched organoids [2]; Dose 2.00 uM, primary screen, standard z score): −0.869
Z.CTG (ISC-enriched organoids [2]; Dose 10.00 uM, primary screen, standard z score): −3.087
SSMD.CTG (ISC-enriched organoids [2]; [8]): 0.320
SSMD.CTG (ISC-enriched organoids [2]; [9]): 0.013
SSMD.CTG (ISC-enriched organoids [2]; [10]): −0.596
SSMD.CTG (ISC-enriched organoids [2]; [11]): −1.329
Z.LYZ.S (ISC-enriched organoids [3]; [8]): 0.763
Z.LYZ.S (ISC-enriched organoids [3]; [9]): −0.306
Z.LYZ.S (ISC-enriched organoids [3]; [10]): −1.817
Z.LYZ.S (ISC-enriched organoids [3]; [11]): −3.149
SSMD.LYZ.S (ISC-enriched organoids [3]; [8]): 0.574
SSMD.LYZ.S (ISC-enriched organoids [3]; [9]): −0.290
SSMD.LYZ.S (ISC-enriched organoids [3]; [10]): −1.400
SSMD.LYZ.S (ISC-enriched organoids [3]; [11]): −2.075

COc1nc(C)cnc1NS(=O)(=O)c1cccnc1-c1ccc(-c2nnco2)cc1 [Zibotentan (ZD4054)]
Z.LYZ.NS (standard z score) (ISC-enriched organoids [1]; dose 0.08 uM): 0.820
Dose.FC.LYZ.NS (log 2 fold change, basal lysozyme secretion) (ISC-enriched organoids [1]; dose 0.08 uM): 0.094
Z.LYZ.NS (standard z score) (ISC-enriched organoids [1]; dose 0.40 uM): 0.474
Dose.FC.LYZ.NS (log 2 fold change, basal lysozyme secretion) (ISC-enriched organoids [1]; dose 0.40 uM): 0.054
Z.LYZ.NS (standard z score) (ISC-enriched organoids [1]; dose 2.00 uM): −0.029
Dose.FC.LYZ.NS (log 2 fold change, basal lysozyme secretion) (ISC-enriched organoids [1]; dose 2.00 uM): −0.003
Z.LYZ.NS (standard z score) (ISC-enriched organoids [1]; dose 10.00 uM): 0.877
Dose.FC.LYZ.NS (log 2 fold change, basal lysozyme secretion) (ISC-enriched organoids [1]; dose 10.00 uM): 0.101
Z.CTG (standard z score) (ISC-enriched organoids [2]; dose 0.08 uM): 0.249
Dose.FC.CTG (log 2 fold change, ATP) (ISC-enriched organoids [2]; dose 0.08 uM): 0.104
Z.CTG (standard z score) (ISC-enriched organoids [2]; dose 0.40 uM): −0.022
Dose.FC.CTG (log 2 fold change, ATP) (ISC-enriched organoids [2]; dose 0.40 uM): −0.009
Z.CTG (standard z score) (ISC-enriched organoids [2]; dose 2.00 uM): −1.834
Dose.FC.CTG (log 2 fold change, ATP) (ISC-enriched organoids [2]; dose 2.00 uM): −0.768
Z.CTG (standard z score) (ISC-enriched organoids [2]; dose 10.00 uM): −0.003
Dose.FC.CTG (log 2 fold change, ATP) (ISC-enriched organoids [2]; dose 10.00 uM): −0.001
Dose.FC.LYZ.S (log 2 fold change, carbachol-induced lysozyme secretion) (ISC-enriched organoids [3]; dose 0.08 uM): 0.168
Dose.FC.LYZ.S (log 2 fold change, carbachol-induced lysozyme secretion) (ISC-enriched organoids [3]; dose 0.40 uM): 0.130
Dose.FC.LYZ.S (log 2 fold change, carbachol-induced lysozyme secretion) (ISC-enriched organoids [3]; dose 2.00 uM): −0.038
Dose.FC.LYZ.S (log 2 fold change, carbachol-induced lysozyme secretion) (ISC-enriched organoids [3]; dose 10.00 uM): 0.050
